Results taken from patent publication US20260306524A1, “Guanidinylated Amphiphilic Tobramycin Derivates and B-Lactam/B-Lactamase Inhibitor Combinations for Treatment of Pseudomonas Aeruginosa Infections” (University of Manitoba, priority 2023, published 2026).
Where two headings read alike, the source gives them in different places.

What was measured:
HEK293 cells = experiment: Cell viability (cytotoxicity) assay, HEK293; format: cell-based, human; settings: for cell viability compared to non-guanidinylated counterpart: HEK293, higher concentrations; for cell viability compared to 1: HEK293, up to 600 μM
Description: (§1) As an initial screening of the toxicity, the cell viability of the tobramycin derivatives was assessed in human embryonic kidney (HEK) 293 cell lines. Polymyxin B was utilized as […] and by being a membrane permeabilizing amphiphile resembling the tobramycin derivatives.
(§2) The cytotoxicity assay was conducted as previously described (24, 30). HEK293 cells were cultured in flasks with Dulbecco's Modified Eagle's Medium (DMEM) supplemented with 10% fetal bovine serum. The cells were incubated at 5% CO2 in a humidified atmosphere at 37° C. 50 μL of media containing approximately 8000 cells were added to designated wells in a 96-well plate. The wells containing only media with no cells served as blanks. The plate was incubated for 24 h. A volume of 50 μL of doubled the final desired concentrations of the agent were subsequently added to the experimental and blank wells. After 48 h incubation, PrestoBlue reagent from Invitrogen (United States) was added to a final concentration of 10% (v/v) and plates were incubated for an additional 1 hour at 5% CO2. Fluorescence was measured with excitation and emission wavelengths of 560 and 590 nm, respectively, using the Molecular Devices (United States) SpectraMax M2 plate reader. Values from the blank wells were subtracted from the corresponding wells with cells. The cell viability relative to the controls with vehicle was calculated. The plots indicate the mean±standard deviation of two experiments with five samples each.

[1] = Cell viability (cytotoxicity) assay, HEK293; format: cell-based, human; settings: human, hek293 cells
Description: as §1, §2

P. aeruginosa PAO1 [2] = experiment: Potentiation of rifampicin, PAO1; format: cell-based, Pseudomonas aeruginosa
Text: Another evidence of OM permeabilization is the ability of the guanidinylated amphiphilic tobramycin derivatives to synergize with membrane-impermeable antibiotics such as rifampicin. 5 and 8 potentiated rifampicin by 16- and 64-fold, respectively, against PAO1. Rifampicin has limited capacity in crossing the OM of Gram-negative bacteria, and is restricted to treating infections caused by Mycobacteria and Gram-positive cocci (48). Unlike the BL antibiotics that permeate the OM through a porin-mediated uptake, the large molecular weight and hydrophobicity of rifampicin make it unable to enter the narrow porins, and rely on slow passive diffusion to traverse the lipid bilayer (49). Therefore, the augmented potency of rifampicin against P. aeruginosa is linked to its increased intracellular concentration through OM destabilization.
(§3) The checkerboard assay was conducted as previously described (61). The bacterial solution was prepared as described in the broth microdilution method. The antibiotic of interest was serially diluted two-fold along the x-axis, and the adjuvant is serially diluted two-fold along the y-axis in a 96-well plate. Equal volumes of bacterial solution were added to the designated wells. […] After incubation, Molecular Devices (United States) Emax Plus microplate reader was used to measure the OD at a wavelength of 590 nm. […]

[3] = tested on: MDR clinical isolates of P. aeruginosa; experiment: MIC against MDR clinical isolates; format: cell-based; settings: Pseudomonas aeruginosa, 18 h; all MDR strains tested, alone
Description: The synergism of the guanidinylated amphiphilic tobramycin derivatives with ceftazidime, aztreonam and piperacillin against PAO1 prompted further investigation against MDR clinical isolates of P. aeruginosa. Prior to the checkerboard assays, the MICs of 5 and 8 were determined to be >128 μg/mL against all strains tested.
All antibiotics were purchased from commercial sources. Bacterial isolates were obtained from the American Type Culture Collection (ATCC), and from the Canadian National Intensive Care Unit (CAN-ICU) (59) and Canadian Ward (CANWARD) surveillance studies (60). CAN-ICU and CANWARD clinical isolates were collected from patients with presumed infectious diseases admitted in participating Canadian medical centers either to the intensive care unit or medical wards. Prior to microbiological testing, bacterial cultures were grown overnight in lysogeny broth (LB) at 37° C., shaking at 250 rpm.
(§4) The broth microdilution assay was performed in accordance with standard protocols as previously described (61). […] After incubation, Molecular Devices (United States) Emax Plus microplate reader was used to measure the optical density (OD) at a wavelength of 590 nm to confirm the turbidity. The minimum inhibitory concentration (MIC) was determined as the lowest concentration that inhibited visible bacterial growth.

P. aeruginosa PAO1 [4] = experiment: Checkerboard synergy with β-lactam antibiotics, PAO1; format: cell-based, Pseudomonas aeruginosa; settings: for active concentration: equivalent to 6 μM
Description: After establishing the MIC of the tobramycin derivatives, the ability of these adjuvants to synergize with BL antibiotics was investigated against P. aeruginosa PAO1. The checkerboard assays were conducted as previously described and in accordance with the CLSI guidelines (37). Synergy was defined by at least a 4-fold reduction in the MICs of both adjuvant and antibiotic. The panel of antibiotics are comprised of commonly used antipseudomonal agents and represent the different BL subclasses—cephalosporin (ceftazidime), monobactam (aztreonam), penicillin (piperacillin) and carbapenems (imipenem and meropenem) (12).
The checkerboard assay was conducted as previously described (61). The bacterial solution was prepared as described in the broth microdilution method. The antibiotic of interest was serially diluted two-fold along the x-axis, and the adjuvant is serially diluted two-fold along the y-axis in a 96-well plate. Equal volumes of bacterial solution were added to the designated wells. The first row and columns are used to verify the MIC of the antibiotic and adjuvant, respectively. The well containing only broth served as negative control, while the well containing the broth and bacterial solution served as positive control. The plate was then incubated at 37° C. for 18 hours. After incubation, Molecular Devices (United States) Emax Plus microplate reader was used to measure the OD at a wavelength of 590 nm. Synergy was determined by at least a 4-fold reduction of the MIC of both agents.

PA 107092 = experiment: Time-kill kinetics assay, PA 107092; format: cell-based, Pseudomonas aeruginosa
Description: (§5) To elucidate the mechanistic killing of the triple combination studies, the time-kill kinetics assay was performed as previously described (32). […] 8 μg/mL of ceftazidime and 2 μg/mL avibactam were used to reflect the clinically used 4:1 ratio.
(§6) Time-kill curve analyses were performed as previously described (32). An inoculum of the culture was then diluted in 0.85% saline solution to attain 0.5 McFarland turbidity. The inoculum was further diluted in lysogeny broth (LB) containing different antibiotic and adjuvant concentrations. The culture tubes were incubated at 37° C., shaking at 250 rpm. At specific time intervals, an aliquot was taken from each tube, serially diluted in sterile phosphate-buffered saline (PBS) and plated on LB agar plates. The plates were incubated at 37° C. overnight and the bacterial colonies were counted the subsequent day. The bactericidal or bacteriostatic activity was determined based on the decrease in CFU over the designated time period. Bactericidal activity corresponded to ≥3 log reduction in CFU/mL, while bacteriostatic activity corresponded to <3 log reduction in CFU/mL.

[5] = tested on: β-lactamase harboring P. aeruginosa isolates; experiment: Checkerboard dual and triple combinations, β-lactamase harboring isolates; format: cell-based, Pseudomonas aeruginosa; settings: checkerboard assays
Text: (§7) Since the main resistance mechanism against BL antibiotics is the hydrolysis by β-lactamase enzymes (46), it is imperative that the synergy evaluation is extended to P. aeruginosa strains containing these enzymes. Based on the results of the checkerboard assays against the MDR strains, the synergy of 5 and 8 with ceftazidime and aztreonam was further assessed against β-lactamase harboring P. aeruginosa isolates. These strains are characterized by their increased susceptibility to ceftazidime with the addition of avibactam. In addition, a triple combination therapy consisting of the tobramycin derivative, either BL antibiotic and avibactam was also investigated.
as §3, with “wells. The first row and columns are used to verify the MIC of the antibiotic and adjuvant, respectively.” for “wells.”

PA 86052 = experiment: Time-kill kinetics assay, PA 86052; format: cell-based, Pseudomonas aeruginosa
Description: as §5, §6

[6] = tested on: β-lactamase harboring P. aeruginosa isolates; experiment: MIC against β-lactamase harboring isolates; format: cell-based; settings: Pseudomonas aeruginosa, 18 h
Text: as §7
as §4, with “(61). An inoculum of the culture was diluted in 0.85% saline solution to attain 0.5 McFarland turbidity. The inoculum was further diluted in Mueller-Hinton broth (MHB) for inoculation to a final concentration of 5×10^5 colony forming units/mL (CFU/mL). The agents were serially diluted two-fold in CA-MHB in a 96-well plate.” for “(61).”

N=C(N)NC[C@H]1O[C@H](O[C@H]2[C@H](O)[C@@H](O[C@H]3O[C@H](CO)[C@@H](O)[C@H](NC(=N)N)[C@H]3O)[C@H](NC(=N)N)C[C@@H]2NC(=N)N)[C@H](NC(=N)N)C[C@@H]1O [Compound 2, guanidinylated tobramycin, reference compound]
cell viability compared to non-guanidinylated counterpart (HEK293 cells): slight decrease in the cell viability

CCCCCCCCCCCCOC1C(OC2OC(CN)C(O)CC2N)C(N)CC(N)C1OC1OC(CO)C(O)C(N)C1O (stereo not shown) [Compound 3]
cytotoxicity (HEK293 cells; HEK293, at 600 μM, relative to tobramycin): highly toxic relative to tobramycin, causing cell death at 600 μM

CCCCCCCCOC1C(OC2OC(CN)C(O)CC2N)C(N)CC(N)C1OC1OC(CO)C(O)C(N)C1O (stereo not shown) [Compound 4, 5-O-(Octyl)-tobramycin]
cell viability compared to 1 (HEK293 cells): comparable to 1 | viability at 48 h, 600 µM ([1]; HEK293, up to 600 μM): 86 to 101%

CCCCCCCCOC1C(OC2OC(CNC(=N)N)C(O)CC2NC(=N)N)C(NC(=N)N)CC(NC(=N)N)C1OC1OC(CO)C(O)C(NC(=N)N)C1O (stereo not shown) [Compound 5, 5-O-(Octyl)-guanidinotobramycin]
fold potentiation of rifampicin (P. aeruginosa PAO1 [2]): 16 fold | MIC [3]: > 128 µg/mL | active concentration (P. aeruginosa PAO1 [4]): ~ 8 μg/mL | cytotoxicity compared to PMB (HEK293 cells; HEK293, 600 μM): comparable toxicity | viability at 48 h, 600 µM ([1]; HEK293, 600 μM): 63.8%

NCCCCCCCCOC1C(OC2OC(CN)C(O)CC2N)C(N)CC(N)C1OC1OC(CO)C(O)C(N)C1O (stereo not shown) [Compound 6, 5-O-(8-Aminooctyl)-tobramycin]
fold potentiation of ceftazidime (P. aeruginosa PAO1 [4]; PAO1, 8 μg/mL of adjuvant): 4 fold | cell viability at 600 μM compared to 4 (HEK293 cells; HEK293, 600 μM): lower in comparison to 4

NC[C@H]1O[C@H](O[C@H]2[C@H](OCc3ccc(-c4ccccc4)cc3)[C@@H](O[C@H]3O[C@H](CO)[C@@H](O)[C@H](N)[C@H]3O)[C@H](N)C[C@@H]2N)[C@H](N)C[C@@H]1O [Compound 7, 5-O-(4-Methylbiphenyl)-tobramycin]
cell viability compared to 1 (HEK293 cells): comparable to 1 | viability at 48 h, 600 µM ([1]; HEK293, up to 600 μM): 86 to 101%

N=C(N)NC[C@H]1O[C@H](O[C@H]2[C@H](OCc3ccc(-c4ccccc4)cc3)[C@@H](O[C@H]3O[C@H](CO)[C@@H](O)[C@H](NC(=N)N)[C@H]3O)[C@H](NC(=N)N)C[C@@H]2NC(=N)N)[C@H](NC(=N)N)C[C@@H]1O [Compound 8, 5-O-(4-Methylbiphenyl)-guanidinotobramycin]
fold potentiation of rifampicin (P. aeruginosa PAO1 [2]): 64 fold | MIC [3]: > 128 µg/mL | active concentration (P. aeruginosa PAO1 [4]): ~ 8 μg/mL | log reduction in CFU/mL, triple combination (PA 107092; 8 μg/mL of 8, ceftazidime 8 μg/mL, avibactam 2 μg/mL, at 4 hours): 3 log | lowest concentration wherein synergy was observed [5]: 8 µg/mL | cytotoxicity up to approximately 106 times the active concentration (HEK293 cells; HEK293): non-cytotoxic | cytotoxicity compared to PMB (HEK293 cells; HEK293, 600 μM): reduced cytotoxicity than PMB | cell viability compared to non-guanidinylated counterpart (HEK293 cells): slight decrease in the cell viability | viability at 48 h, 600 µM ([1]; HEK293, 600 μM): 79.8% | selectivity ratio ([1]; HEK293, active concentration 8 μg/mL, read-out: non-cytotoxic concentration (600 μM, 848.04 μg/mL) as multiple of active concentration): ~106 | log reduction in CFU/mL, triple combination (PA 86052; 8 μg/mL of 8, ceftazidime 8 μg/mL, avibactam 2 μg/mL, within 8 hours): > 3 log | time to bactericidal effect, triple combination (PA 86052; 8 with ceftazidime/avibactam): ≤ 8 h

COc1cccc2c1C(=O)c1c(O)c3c(c(O)c1C2=O)C[C@@](O)(C(=O)CO)C[C@@H]3O[C@H]1C[C@H](N)[C@H](O)[C@H](C)O1 [Doxorubicin, reference compound]
viability at 48 h, 125 µM ([1]; HEK293, 125 μM): 0%

C[C@H]1[C@H](NC(=O)/C(=N\OC(C)(C)C(=O)O)c2csc(N)n2)C(=O)N1S(=O)(=O)O [aztreonam]
MIC ([6]; five β-lactamase harboring strains, read-out: MIC of aztreonam monotherapy): 32 to 128 µg/mL

CC(C)(O/N=C(\C(=O)N[C@@H]1C(=O)N2C(C(=O)[O-])=C(C[n+]3ccccc3)CS[C@H]12)c1csc(N)n1)C(=O)O [ceftazidime, reference compound]
antibacterial effect over 24 h, monotherapy (PA 107092; 8 μg/mL ceftazidime): ineffective | MIC ([6]; all five β-lactamase harboring strains, read-out: MIC of ceftazidime monotherapy): 64 to 128 µg/mL | antibacterial effect over 24 h (PA 86052; 8 μg/mL ceftazidime, 2 μg/mL avibactam): did not exhibit any antibacterial effect

Polymyxin B [PMB, reference compound]
cell viability (HEK293 cells; HEK293, 600 μM, 2880 min): 64.7%
